The series is described as follows: In vitro stability in mouse serum (HPLC). Format: in vitro ADME. The following applies: 37 °C, normalized to 0 h, n = 3. As for the experimental part: Stability of the ^55Co-labeled folates was monitored over a period of 24 h in phosphate buffered saline (PBS) and mouse serum, to monitor the stability of a dose prior to injection (for potential shipment to a PET center) and match the longest biodistribution time point, respectively. The percentage of the intact complex was monitored at 1 h, 4 h, and 24 h via radio-TLC (PBS) or HPLC (mouse serum). […] In PBS, both radioconjugates retained 93% or greater stability at 24 h. […] As a control, one group of replicate serum tubes contained only [^55Co]CoCl2. […] Therefore, the peak corresponding to free [^55Co]CoCl2 (tR = 2.2 min) was used to determine the overall serum stability of the ^55Co-labeled chelates, which was approximately 95% for each compound at 24 h.
The ^55Co-labeled folate derivatives were diluted 10-fold in 10 mM PBS (pH = 7.4) or whole mouse serum (EMD Millipore, Burlington, MA) in 1.5 mL centrifuge tubes to final volumes of 100 μL. The tubes were incubated at 37 °C with vortexing at 900 rpm using an Eppendorf ThermoMixer C (Eppendorf, Hamburg, Germany) equipped with a 1.5 mL heating block. In the case of PBS stability, three replicate tubes were prepared with average final activity concentrations of 37 kBq (1 μCi) [^55Co]Co-cm10/μL or 37 kBq (1 μCi) [^55Co]Co-rf42/μL, and the final concentrations of precursor were 0.07 mM of cm10 or rf42. The percent of the intact complex was determined by analyzing 1 μL aliquots of each solution by radio-TLC at 1 h, 4 h and 24 h. For mouse serum stability, three replicate tubes were prepared for each time point for each complex. The final average activity concentrations were 11.1 kBq (0.3 μCi) [^55Co]Co-cm10/μL and 7.4 kBq (0.2 μCi) [^55Co]Co-rf42/μL and 0.02 mM final folate concentration. A control sample was prepared for each time point that contained an average of 10.4 kBq/μL of [^55Co]CoCl2. At each time point, 300 μL of ACN was added to each tube to precipitate serum proteins. The tubes were centrifuged at 4500 rpm for 5 min using a benchtop microcentrifuge (Eppendorf, Hamburg, Germany) and the supernatants collected. The pellets were washed once more, and the supernatants were collected and combined with the first ACN wash. The activities in the pellets and supernatants were determined using a 2480 Wizard2 Automatic Gamma Counter (Perkin Elmer, Waltham, MA, USA) to determine the amount of activity associated with the protein pellet. To determine the percentage of intact complex, the supernatant was diluted 2-fold with water, and 100 μL of this mixture was injected into the HPLC.

The results in this text go back to paper PMC6958329, “New ^55Co-labeled Albumin-Binding Folate Derivatives as Potential PET Agents for Folate Receptor Imaging” (Pharmaceuticals, 2019).

Where “and” joins values, the source holds several entries; their conditions need not be identical. Equal values may be shown once.

Turning to `Nc1nc2ncc(CNc3ccc(C(=O)N[C@@H](CCC(=O)NC(CCCCNC(=O)CN4CCN(CC(=O)O)CCN(CC(=O)O)CCN(CC(=O)O)CC4)C(=O)NC(CCCCNC(=O)CCCc4ccc(I)cc4)C(=O)O)C(=O)O)cc3)nc2c(=O)[nH]1.[55Co]` (stereo partly drawn) [[^55Co]Co-cm10], the “percent intact complex, mouse serum” value is, setting by setting: (1 h) 98 ± 1%; (4 h) 97.8 ± 0.6%; (24 h) 94% and 95 ± 1%.
On to `Nc1nc2ncc(CNc3ccc(C(=O)N[C@@H](CCC(=O)NC(CCCCNC(=O)CCC(C(=O)O)N4CCN(CC(=O)O)CCN(CC(=O)O)CC4)C(=O)NC(CCCCNC(=O)CCCc4ccc(I)cc4)C(=O)O)C(=O)O)cc3)nc2c(=O)[nH]1.[55Co]` (stereo partly drawn) [[^55Co]Co-rf42], for which the “percent intact complex, mouse serum” value runs as follows: (1 h) 97.5 ± 0.5%; (4 h) 97.2 ± 0.4%; (24 h) 94% and 94.6 ± 0.6%.
